Measured values: US20250154141A1 (University of Florida Research Foundation, Incorporated, priority 2021, published 2025)
Where two headings read alike, the source gives them in different places.

Columns and labels:
Format in all cases: cell-based
MOLT-4 = assay: Cell viability assay (MTS) in MOLT-4 cells; details: Homo sapiens
Protocol: (§1) Acute lymphoblastic leukemia cells (MOLT-4 and RS4; 11) were incubated with increasing concentrations of Bcl-xL degraders for 48 h. Cell viability was measured by tetrazolium-based MTS assay.

RS4; 11 = assay: Cell viability assay (MTS) in RS4; 11 cells; set-up: Anti-Cancer Activity IC50 (48 hr) RS4; 11: scale not given here; details: for IC50: Homo sapiens
Protocol: as §1

Bcl-xL = Bcl-xL (Homo sapiens, UniProt Q07817); assay: Protein degradation assay in Jurkat cells (Western blot), Bcl-xL; set-up: endogenous in cells; host or cells: Jurkat cells; details: FIG. 1, 16 hours
Chain of Bcl-xL (Q07817 whole entry): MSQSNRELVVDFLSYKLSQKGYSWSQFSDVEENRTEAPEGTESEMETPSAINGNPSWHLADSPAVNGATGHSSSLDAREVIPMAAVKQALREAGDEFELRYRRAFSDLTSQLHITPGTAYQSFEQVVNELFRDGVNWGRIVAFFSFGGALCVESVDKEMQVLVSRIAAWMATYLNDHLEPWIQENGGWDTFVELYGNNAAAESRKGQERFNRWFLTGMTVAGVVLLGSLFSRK
Protocol: (§2) Jurkat cells and human platelets were incubated with increasing concentrations of test compounds for 16 h. The cells were harvested and lysed in RIPA lysis buffer supplemented with protease and phosphatase inhibitor cocktails. An equal amount of protein ([…]) was resolved on a pre-cast 4-20% SDS-PAGE gel. Proteins were subsequently transferred to NOVEX PVDF membranes by electrophoresis. The membranes were blocked in blocking buffer (5% non-fat dry milk in TBS-T), and incubated with primary antibodies (at optimized concentrations) overnight at 4° C. After three washings in TBS-T, the membranes were incubated with an appropriate FIRP-conjugated secondary antibody for 1 h at room temperature. After extensive washing for three times, the proteins of interest was detected with ECL western blotting detection reagents and recorded with autoradiography (Pierce Biotech, Rockford, IL, USA). The primary antibodies for Bcl-xL (Cat #2762), Bcl-2 (Cat #2872), Mcl-1 (Cat #5453) and j-actin (Cat #4970) were purchased from Cell Signaling Technology. The relative band intensity was measured using ImageJ software and normalized to β-actin.

Bcl-2 = Bcl-2 (Homo sapiens, UniProt P10415); assay: Protein degradation assay in Jurkat cells (Western blot), Bcl-2; set-up: endogenous in cells; host or cells: Jurkat cells; details: FIG. 1, 16 hours
Chain of Bcl-2 (P10415 whole entry): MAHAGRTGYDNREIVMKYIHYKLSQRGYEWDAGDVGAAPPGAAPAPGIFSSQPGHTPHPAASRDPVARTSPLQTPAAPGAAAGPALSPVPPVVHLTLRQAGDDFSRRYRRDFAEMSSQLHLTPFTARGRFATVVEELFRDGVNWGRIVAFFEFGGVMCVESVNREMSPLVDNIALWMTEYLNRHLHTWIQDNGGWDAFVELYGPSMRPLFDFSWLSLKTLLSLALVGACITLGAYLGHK
Protocol: as §2

human platelets = assay: Platelet toxicity assay (MTS viability); details: for IC50: Platelet, 48 h, human platelets; for Platelets/MOLT-4 IC50 Fold change: ratio of platelet IC50 to MOLT-4 IC50
Protocol: Platelet-rich plasma (PRP) was purchased from Life South Community Blood Centers (Gainesville, FL, USA). PRP was transferred into a 50 mL tube containing 5 mL of the acid citrate buffer (Cat. No. sc-214744, Santa Cruz Biotechnology). To prevent clotting, prostaglandin E1 (PGE1, Cat. No. sc-201223A, Santa Cruz Biotechnology, Dallas, TX, USA) and apyrase (Cat. No. A6237, Sigma-Aldrich, St. Louis, MO, USA) were added to final concentrations of […] and 0.2 U/mL, respectively. After gently mixing the solution, platelets were pelleted by centrifugation at 1200 g for 10 min without break. Pelleted platelets were gently washed without disturbing platelets using 2 mL of HEPES Tyrode's buffer (Cat. No. PY-921WB, Boston BioProducts, Ashland, MA, USA) containing […] PGE1 and 0.2 U/mL apyrase. After washing, pellets were gently suspended in 10 mL of HEPES Tyrode's buffer containing […] PGE1 and 0.2 U/mL apyrase. Then, the platelet number was counted using a HEMAVET 950FS hematology analyzer (Drew Scientific, Inc., Oxford, CT, USA). For viability assays, the platelet number was adjusted to 2×10^8/mL in HEPES Tyrode's buffer containing […] PGE1 and 0.2 U/mL apyrase. Each treatment was given in 2 mL of the platelet suspension in 15 mL polypropylene tubes. The tubes were placed on a rotating platform at room temperature, and the viability of platelets was measured after 48 h treatment by using the MTS reagent (Cat. No. G1111, Promega, Madison, WI, USA). The data were analyzed by the GraphPad Prism 7 software for the calculation of IC50 values.

[1] = MOLT-4, 48 h, read-out: Anti-Cancer Activity IC50 (48 hr) MOLT-4
[2] = RS4-11, 48 h, read-out: Anti-Cancer Activity IC50 (48 hr) RS4, 11
[3] = MOLT-4, Table 2, 48 hr, MTS, read-out: Anti-Cancer Activity IC50 (48 hr) MOLT-4
[4] = RS4-11, Table 2, 48 hr, MTS, read-out: Anti-Cancer Activity IC50 (48 hr) RS4, 11
[5] = MOLT-4, Table 3, 48 h, mean of two independent experiments in triplicates, read-out: MOLT-4 48 h IC50
[6] = RS4-11, Table 5, 48 h, read-out: RS4 48 h IC50
[7] = Homo sapiens, Table 3, mean of two independent experiments in triplicates, read-out: Platelets 48 h IC50
[8] = Homo sapiens, Table 5, read-out: Platelets 48 h IC50

Cc1ncsc1-c1ccc([C@H](C)NC(=O)[C@@H]2C[C@@H](O)CN2C(=O)[C@@H](NC(=O)CN2[C@@H]3CC[C@H]2CN(CC(=O)N2CCN(CC4(C)CCC(c5ccc(Cl)cc5)=C(CN5CCN(c6ccc(C(=O)NS(=O)(=O)c7ccc(N[C@H](CCN8CCOCC8)CSc8ccccc8)c(S(=O)(=O)C(F)(F)F)c7)cc6)CC5)C4)CC2)C3)C(C)(C)C)cc1 (some centres unmarked) [Compound 32]
IC50 (MOLT-4; [1]): < 20 nM | IC50 (RS4; 11; [2]): < 20 nM | degradation of BCL-XL by Western blotting analysis (Bcl-xL): exemplary degradation | degradation of BCL-2 by Western blotting analysis (Bcl-2): exemplary degradation

Cc1ncsc1-c1ccc([C@H](C)NC(=O)[C@@H]2C[C@@H](O)CN2C(=O)[C@@H](NC(=O)CN2CCC(CC(=O)N3CCN(CC4(C)CCC(c5ccc(Cl)cc5)=C(CN5CCN(c6ccc(C(=O)NS(=O)(=O)c7ccc(N[C@H](CCN8CCOCC8)CSc8ccccc8)c(S(=O)(=O)C(F)(F)F)c7)cc6)CC5)C4)CC3)CC2)C(C)(C)C)cc1 (some centres unmarked) [Compound 26]
IC50 (MOLT-4; [3]): < 20 nM | IC50 (RS4; 11; [4]): 20 to 100 nM | degradation of BCL-XL by Western blotting analysis (Bcl-xL): exemplary degradation | degradation of BCL-2 by Western blotting analysis (Bcl-2): exemplary degradation

Cc1ncsc1-c1ccc([C@H](C)NC(=O)[C@@H]2C[C@@H](O)CN2C(=O)[C@@H](NC(=O)CCCCCCC(=O)N2CCN(CC3(C)CCC(c4ccc(Cl)cc4)=C(CN4CCN(c5ccc(C(=O)NS(=O)(=O)c6ccc(N[C@H](CCN7CCCCC7)CSc7ccccc7)c([N+](=O)[O-])c6)cc5)CC4)C3)CC2)C(C)(C)C)cc1 (stereo partly drawn) [Compound 39, (2S,4R)-1-((2S)-2-(8-(4-((4′-chloro-4-methyl-6-((4-(4-(((3-nitro-4-(((R)-1-(phenylthio)-4-(piperidin-1-yl)butan-2-yl)amino)phenyl)sulfonyl)carbamoyl)phenyl)piperazin-1-yl)methyl)-2,3,4,5-tetrahydro-[1,1′-biphenyl]-4-yl)methyl)piperazin-1-yl)-8-oxooctanamido)-3,3-dimethylbutanoyl)-4-hydroxy-N—((S)-1-(4-(4-methylthiazol-5-yl)phenyl)ethyl)pyrrolidine-2-carboxamide]
IC50 (MOLT-4; [3]): < 20 nM | IC50 (MOLT-4; [5]): 14.3 nM | IC50 (RS4; 11; [4]): < 20 nM | IC50 (RS4; 11; [6]): 8.4 nM | IC50 (human platelets; [7]): 4570 nM | IC50 (human platelets; [8]): 4570 nM | Platelets/MOLT-4 IC50 Fold change (human platelets; Table 3): 319

Cc1ncsc1-c1ccc([C@H](C)NC(=O)[C@@H]2C[C@@H](O)CN2C(=O)[C@@H](NC(=O)CCCCC(=O)N2CCC(C3CCN(CC4(C)CCC(c5ccc(Cl)cc5)=C(CN5CCN(c6ccc(C(=O)NS(=O)(=O)c7ccc(N[C@H](CCN8C[C@H]9C[C@@H]8CO9)CSc8ccccc8)c(S(=O)(=O)C(F)(F)F)c7)cc6)CC5)C4)CC3)CC2)C(C)(C)C)cc1 (some centres unmarked) [Compound 69]
IC50 (MOLT-4; [3]): < 20 nM | IC50 (MOLT-4; MOLT-4, Table 5, 48 h, read-out: MOLT-4 48 h IC50): 1.9 nM | IC50 (RS4; 11; [4]): < 20 nM | IC50 (RS4; 11; [6]): 3.7 nM | IC50 (human platelets; [8]): 157 nM

Cc1ncsc1-c1ccc([C@H](C)NC(=O)[C@@H]2C[C@@H](O)CN2C(=O)[C@@H](NC(=O)CCCCCCC(=O)N2CCN(CC3(C)CCC(c4ccc(Cl)cc4)=C(CN4CCN(c5ccc(C(=O)NS(=O)(=O)c6ccc(N[C@H](CCN7C[C@H]8C[C@@H]7CO8)CSc7ccccc7)c(S(=O)(=O)C(F)(F)F)c6)cc5)CC4)C3)CC2)C(C)(C)C)cc1 (some centres unmarked) [Compound 65]
IC50 (MOLT-4; [3]): < 20 nM | IC50 (MOLT-4; MOLT-4, Table 6, 48 h, read-out: MOLT-4 48 h IC50): 2.8 nM | IC50 (RS4; 11; [4]): < 20 nM | IC50 (RS4; 11; RS4-11, Table 6, 48 h, read-out: RS4 48 h IC50): 4.2 nM | IC50 (human platelets; Homo sapiens, Table 6, 4 th time, read-out: Platelets 4 th time 48 h IC50): 1600 nM | Platelets/MOLT-4 IC50 Fold change (human platelets; Table 6): 711 | degradation of BCL-XL by Western blotting analysis (Bcl-xL): exemplary degradation | degradation of BCL-2 by Western blotting analysis (Bcl-2): exemplary degradation

Cc1ncsc1-c1ccc([C@H](C)NC(=O)[C@@H]2C[C@@H](O)CN2C(=O)[C@@H](NC(=O)CCCCCCC(=O)N2CCN(CC3(C)CCC(c4ccc(Cl)cc4)=C(CN4CCN(c5ccc(C(=O)NS(=O)(=O)c6ccc(N[C@H](CCN7CCCC7)CSc7ccccc7)c([N+](=O)[O-])c6)cc5)CC4)C3)CC2)C(C)(C)C)cc1 (stereo partly drawn) [Compound 38, (2S,4R)-1-((2S)-2-(8-(4-((4′-chloro-4-methyl-6-((4-(4-(((3-nitro-4-(((R)-1-(phenylthio)-4-(pyrrolidin-1-yl)butan-2-yl)amino)phenyl)sulfonyl)carbamoyl)phenyl)piperazin-1-yl)methyl)-2,3,4,5-tetrahydro-[1,1′-biphenyl]-4-yl)methyl)piperazin-1-yl)-8-oxooctanamido)-3,3-dimethylbutanoyl)-4-hydroxy-N—((S)-1-(4-(4-methylthiazol-5-yl)phenyl)ethyl)pyrrolidine-2-carboxamide]
IC50 (MOLT-4; [3]): < 20 nM | IC50 (MOLT-4; [5]): 17.6 nM | Anti-Cancer Activity IC50 (48 hr) RS4; 11 (RS4; 11; Table 2, 48 hr, MTS): + ++ | IC50 (human platelets; [7]): 3000 nM | Platelets/MOLT-4 IC50 Fold change (human platelets; Table 3): 170

Cc1ncsc1-c1ccc([C@H](C)NC(=O)[C@@H]2C[C@@H](O)CN2C(=O)[C@@H](NC(=O)CN2CCN(CC(=O)N3CCN(C[C@]4(C)CCC(c5ccc(Cl)cc5)=C(CN5CCN(c6ccc(C(=O)NS(=O)(=O)c7ccc(N[C@H](CCN8C[C@H]9C[C@@H]8CO9)CSc8ccccc8)c(S(=O)(=O)C(F)(F)F)c7)cc6)CC5)C4)CC3)CC2)C(C)(C)C)cc1 [Compound 105]
IC50 (MOLT-4; [1]): < 20 nM | IC50 (MOLT-4; MOLT-4, 48 h, read-out: MOLT-4 48 h IC50): 4 nM | IC50 (RS4; 11; [2]): < 20 nM | IC50 (RS4; 11; RS4-11, 48 h, read-out: RS4 48 h IC50): 3 nM | IC50 (human platelets; Table 4, read-out: Platelets 48 h IC50): 777 nM
